Results on 23 compounds are retold here after patent US20230167073A1 (Teijin Pharma Limited, priority 2020, published 2023).

In the assay the target is T1, Human TRPC6 (Homo sapiens, UniProt Q9Y210).
T1 construct: expressed in transfected cells
T1 sequence (Q9Y210 1-931): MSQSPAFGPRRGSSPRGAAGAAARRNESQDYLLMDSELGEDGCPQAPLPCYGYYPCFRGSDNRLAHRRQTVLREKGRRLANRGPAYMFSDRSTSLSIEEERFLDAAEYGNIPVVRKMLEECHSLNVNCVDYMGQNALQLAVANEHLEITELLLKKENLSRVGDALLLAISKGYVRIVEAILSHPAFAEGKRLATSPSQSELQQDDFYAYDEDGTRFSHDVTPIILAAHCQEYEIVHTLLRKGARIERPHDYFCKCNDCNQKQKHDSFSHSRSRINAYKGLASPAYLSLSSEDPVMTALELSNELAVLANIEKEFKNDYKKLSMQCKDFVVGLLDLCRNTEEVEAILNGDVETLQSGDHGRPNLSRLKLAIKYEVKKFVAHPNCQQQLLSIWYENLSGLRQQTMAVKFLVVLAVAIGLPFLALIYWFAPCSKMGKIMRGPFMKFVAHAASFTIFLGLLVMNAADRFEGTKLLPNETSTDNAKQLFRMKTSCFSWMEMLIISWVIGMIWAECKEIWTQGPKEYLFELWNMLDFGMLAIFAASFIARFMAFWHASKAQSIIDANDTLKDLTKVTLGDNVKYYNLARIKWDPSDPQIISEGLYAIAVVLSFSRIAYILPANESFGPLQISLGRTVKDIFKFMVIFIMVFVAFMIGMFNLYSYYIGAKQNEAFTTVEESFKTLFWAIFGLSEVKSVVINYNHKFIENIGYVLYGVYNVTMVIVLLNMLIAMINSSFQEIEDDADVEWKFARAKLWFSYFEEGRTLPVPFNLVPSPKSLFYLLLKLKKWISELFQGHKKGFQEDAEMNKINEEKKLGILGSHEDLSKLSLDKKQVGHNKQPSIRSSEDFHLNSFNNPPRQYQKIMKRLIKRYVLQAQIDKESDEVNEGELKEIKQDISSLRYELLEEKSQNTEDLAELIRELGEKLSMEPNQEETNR
In words: Evaluation of TRPC6 channel inhibitory activity (2), HEK293 cells with stably introduced human TRPC6, OAG stimulation, FLIPR tetra (Compound Nos. 1293 to 1405). Type of assay: cell-based. The settings on record: HEK293 cells with stably introduced human TRPC6, OAG 50 μM/0.5% DMSO, read-out: Inhibitory activity (pIC50 class) (converted). How it is done: Evaluation of TRPC6 Channel Inhibitory Activity (2) (Compound Nos. 1293 to 1405)
The activity of the TRPC6 inhibitor was measured by stimulating HEK293 cells, in which human TRPC6 was stably introduced, with OAG (1-Oleoyl-2-acetyl-sn-glycerol, Miliipore Sigma, 06754), using the FLIPR tetra system. The cells were proliferated in a humid environment at 37° C. 5% CO2 using a growth medium (DMEM (Dulbecco's Modified Eagle's Medium) high glucose containing 10% fetal bovine serum, 1×PSGlu (penicillin-streptomycin glutamine), 1×NEAA (Non-essential amino acid), sodium pyruvate and 200 μg/mL hyglomycin. For cell subculture, the cells were proliferated to 70-90% confluence, and gently washed twice with PBS (phosphate-buffered saline) free of calcium and magnesium after removing the medium. Then, the cells were incubated at 37° C. for 5 minutes after adding trypsin (3 mL), peeled off by tapping the flask at the base of the hand, 7 mL of growth medium was added to inactivate trypsin, and then the cells were resuspended. Usually, the cells were separated every 2-3 days to become a cell density of ⅕. The day before evaluation, the cells were seeded in a poly-D-lysine (PDL) coated 384-well plate using a multi-channel pipette or multidrop at a cell density of 1.0-1.5×10^4 cells/25 μL/well. After culturing overnight in a PDL-coated 384 Blackwell plate, a fluorescent dye buffer was added first to the cells and the cells were cultured at room temperature for 90-120 minutes. For preparing 10 mL of fluorescent dye buffer, 9 mL of assay buffer, 1 mL of 10×PBX signal enhancer, and 10 μL of calcium indicator were mixed. Cells treated with the compounds of each level 25 minutes before the stimulation with OAG of TRPC6 agonist were incubated. OAG solution was prepared by adding OAG to assay buffer (Ca ringer solution base: 10 mM HEPES (4-(2-hydroxyethyl)-1-piperazine-ethanesulfonic acid), 4 mM MgCl2, 120 mM NaCl, 5 mM KCl, pH=7.2 (25° C.)+0.1% BSA+2 mM CaCl2)) to give an OAG concentration of 0.2 mM/2% DMSO. The final concentration of OAG added to the cells is 50 μM/0.5% DMSO. A volume of 12.5 μL of OAG solution was added, and activation of TRPC6 channel was measured using the FLIPR tetra system assaying the change in intracellular calcium level as an index. The 180 seconds imaging frame was defined as the background signal, and the subtraction of the background signal from the raw data was used as the fluorescence peak signal. Each fluorescence peak signal is standardized using an OAG-induced signal and buffer-induced signal as 100% and 0%, respectively. The inhibition rate obtained by plotting the peak signal after the addition of the compounds of each level was analyzed by a four-parameter logistic regression to quantify the inhibition rate in the logarithm of the inverse of the effective concentration which gives a 50% inhibition rate (pIC50). The intensity was expressed by the above-mentioned symbols (+, ++, +++).

As to `Cn1nc(C2CC2)cc1Oc1cc(F)ccc1-c1ncc(C(F)CN)cn1` (stereo in doubt) [compound 1381, (2S)-2-[2-[2-(5-cyclopropyl-2-methylpyrazol-3-yl)oxy-4-fluorophenyl]pyrimidin-5-yl]-2-fluoroethanamine], the IC50 is over 1000 nM.
The result for `Cn1nc(C2CC2)cc1Oc1cc(C#N)ccc1-c1ccc(C(F)(F)CN)nc1` [compound 1294, 4-[6-(2-amino-1,1-difluoroethyl)pyridin-3-yl]-3-(5-cyclopropyl-2-methylpyrazol-3-yl)oxybenzonitrile] reads over 1000 nM.
`Cn1nc(-c2ccccn2)cc1Oc1cc(C#N)ccc1-c1ncc([C@@H](F)CN)cn1` [compound 1295, 4-[5-[(1R)-2-amino-1-fluoroethyl]pyrimidin-2-yl]-3-(2-methyl-5-pyridin-2-ylpyrazol-3-yl)oxybenzonitrile]: the IC50 is under 10 nM.
Take `Cn1nc(-c2ccccn2)cc1Oc1cc(C#N)ccc1-c1ncc([C@H](F)CN)cn1` [compound 1296, 4-[5-[(1S)-2-amino-1-fluoroethyl]pyrimidin-2-yl]-3-(2-methyl-5-pyridin-2-ylpyrazol-3-yl)oxybenzonitrile]: the IC50 is under 10 nM.
For `Cc1cc(Oc2cc(C#N)ccc2-c2ccc3c(n2)CNC3)cc(N2CCOCC2)n1` [compound 1297, 4-(6,7-dihydro-5H-pyrrolo[3,4-b]pyridin-2-yl)-3-(2-methyl-6-morpholin-4-ylpyridin-4-yl)oxybenzonitrile] the value was 10 to 1000 nM; for `Cc1cc(Oc2cc(C#N)ccc2-c2ncc(CN)cn2)nc(N2CCOCC2)n1` [compound 1298, 4-[5-(aminomethyl)pyrimidin-2-yl]-3-(6-methyl-2-morpholin-4-ylpyrimidin-4-yl)oxybenzonitrile], 10 to 1000 nM.
For `Cc1cc(Oc2cc(C#N)ccc2-c2ccc([C@@H](F)CN)cn2)cc(N2CCOCC2)n1` [compound 1299, 4-[5-[(1R)-2-amino-1-fluoroethyl]pyridin-2-yl]-3-(2-methyl-6-morpholin-4-ylpyridin-4-yl)oxybenzonitrile], the IC50 is under 10 nM.
The result for `Cc1cc(Oc2cc(C#N)ccc2-c2ccc([C@H](F)CN)cn2)cc(N2CCOCC2)n1` [compound 1300, 4-[5-[(1S)-2-amino-1-fluoroethyl]pyridin-2-yl]-3-(2-methyl-6-morpholin-4-ylpyridin-4-yl)oxybenzonitrile] reads under 10 nM.
The result for `Cn1nc(-c2ccccn2)cc1Oc1cc(C#N)ccc1-c1ccc([C@@H](F)CN)cn1` [compound 1301, 4-[5-[(1R)-2-amino-1-fluoroethyl]pyridin-2-yl]-3-(2-methyl-5-pyridin-2-ylpyrazol-3-yl)oxybenzonitrile] reads under 10 nM; that for `Cn1nc(-c2ccccn2)cc1Oc1cc(C#N)ccc1-c1ccc([C@H](F)CN)cn1` [compound 1302, 4-[5-[(1S)-2-amino-1-fluoroethyl]pyridin-2-yl]-3-(2-methyl-5-pyridin-2-ylpyrazol-3-yl)oxybenzonitrile], under 10 nM; that for `Cc1cc(Oc2cc(C#N)ccc2-c2cccc3cnc(N)nc23)cc(N2CCOCC2)n1` [compound 1303, 4-(2-aminoquinazolin-8-yl)-3-(2-methyl-6-morpholin-4-ylpyridin-4-yl)oxybenzonitrile], over 1000 nM.
Regarding `Cc1cc(Oc2cc(C#N)ccc2-c2ccc(CN)c(C)n2)cc(N2CCOCC2)n1` [compound 1304, 4-[5-(aminomethyl)-6-methylpyridin-2-yl]-3-(2-methyl-6-morpholin-4-ylpyridin-4-yl)oxybenzonitrile], the IC50 is under 10 nM.
As for `COc1nc(-c2ccc(C#N)cc2Oc2cc(C)nc(N3CCOCC3)c2)ccc1CN` [compound 1305, 4-[5-(aminomethyl)-6-methoxypyridin-2-yl]-3-(2-methyl-6-morpholin-4-ylpyridin-4-yl)oxybenzonitrile], the IC50 is 10 to 1000 nM.
The result for `Cn1nc([C@@H]2CCOC2)cc1Oc1cc(C#N)ccc1-c1ccc(CN)cn1` [compound 1306, 4-[5-(aminomethyl)pyridin-2-yl]-3-[2-methyl-5-[(3S)-oxolan-3-yl]pyrazol-3-yl]oxybenzonitrile] reads under 10 nM.
For `CNc1ccc(-c2ccc(C#N)cc2Oc2cc(C)nc(N3CCOCC3)c2)nc1` [compound 1307, 4-[5-(methylamino)pyridin-2-yl]-3-(2-methyl-6-morpholin-4-ylpyridin-4-yl)oxybenzonitrile] the value was over 1000 nM; for `Cn1nc([C@@H]2CCOC2)cc1Oc1cc(C#N)ccc1-c1ncc(CN)cn1` [compound 1308, 4-[5-(aminomethyl)pyrimidin-2-yl]-3-[2-methyl-5-[(3S)-oxolan-3-yl]pyrazol-3-yl]oxybenzonitrile], 10 to 1000 nM.
The result for `Cn1cc(-c2cc(Oc3cc(C#N)ccc3-c3ccc(CN)cn3)n(C)n2)cn1` [compound 1309, 4-[5-(aminomethyl)pyridin-2-yl]-3-[2-methyl-5-(1-methylpyrazol-4-yl)pyrazol-3-yl]oxybenzonitrile] reads 10 to 1000 nM.
On to `COc1nc(-c2ccc(C#N)cc2Oc2cc(-c3ccccn3)nn2C)ccc1CN` [compound 1310, 4-[5-(aminomethyl)-6-methoxypyridin-2-yl]-3-(2-methyl-5-pyridin-2-ylpyrazol-3-yl)oxybenzonitrile], for which the IC50 was 10 to 1000 nM.
As to `Cc1cc(Oc2cc(Cl)ccc2-c2ncc(CCN)cn2)cc(N2CCOCC2)n1` [compound 1311, 2-[2-[4-chloro-2-(2-methyl-6-morpholin-4-ylpyridin-4-yl)oxyphenyl]pyrimidin-5-yl]ethanamine], the IC50 was 10 to 1000 nM.
As to `Cn1nc(-c2ccccn2)cc1Oc1cc(C#N)ccc1-c1ccc(C(F)(F)CN)cn1` [compound 1312, 4-[5-(2-amino-1,1-difluoroethyl)pyridin-2-yl]-3-(2-methyl-5-pyridin-2-ylpyrazol-3-yl)oxybenzonitrile], the IC50 is under 10 nM.
The result for `Cn1nc(C2CCOCC2)cc1Oc1cc(C#N)ccc1-c1ncc([C@@H](F)CN)cn1` [compound 1313, 4-[5-[(1R)-2-amino-1-fluoroethyl]pyrimidin-2-yl]-3-[2-methyl-5-(oxan-4-yl)pyrazol-3-yl]oxybenzonitrile] reads 10 to 1000 nM; that for `Cn1nc(C2CCOCC2)cc1Oc1cc(C#N)ccc1-c1ncc([C@H](F)CN)cn1` [compound 1314, 4-[5-[(1S)-2-amino-1-fluoroethyl]pyrimidin-2-yl]-3-[2-methyl-5-(oxan-4-yl)pyrazol-3-yl]oxybenzonitrile], 10 to 1000 nM.
Regarding `Cc1cc(Oc2cc(Cl)ccc2-c2ncc(CN)cn2)cc(N2CCOCC2)n1` [compound 1315, [2-[4-chloro-2-(2-methyl-6-morpholin-4-ylpyridin-4-yl)oxyphenyl]pyrimidin-5-yl]methanamine], the IC50 was 10 to 1000 nM.
